39 compounds from US20240199651A1, “ANTIBACTERIAL COMPOUNDS” (JANSSEN SCIENCES IRELAND UNLIMITED COMPANY, priority 2021, published 2024) can be followed below.

The structures appear in SMILES notation. pIC50: −log10 of the molar value. Like-named read-outs stand apart in the source and are kept apart here. Bounds are passed on as bounds.

This series in a line: Mitochondrial toxicity (Glu/Gal) assay. The class given is cell-based. To be noted: for Score: mitotoxicity score, Glu/Gal assay; for Δ IC50, glu/IC50, gal: ratio IC50 glu / IC50 gal. From the text:
The compounds of the invention/examples may have advantages associated with in vitro potency, kill kinetics (i.e. bactericidal effect) in vitro, PK properties, food effect, safety/toxicity (including liver toxicity, coagulation, 5-LO oxygenase), metabolic stability, Ames II negativity, MNT negativity, aqueous based solubility (and ability to formulate) and/or cardiovascular effect e.g. on animals (e.g. anesthetized guinea pig). Data that is generated/calculated may be obtained using standard methods/assays, for instance that are available in the literature or which may be performed by a supplier (e.g. Microsomal Stability Assay—Cyprotex, Mitochondrial toxicity (Glu/Gal) assay—Cyprotex, as well as literature CYP cocktail inhibition assays). GSH can be measured (reactive metabolites, glucuronidation) to observe if a dihydrodiol is observed by LCMS (fragmentation ions), which would correspond to a dihydroxylation on the core heterocycle.

Setting [1] is: galactose medium (Glu/Gal mitotoxicity assay), read-out: IC50, gal.
The mark [2] stands for this setting: glucose medium (Glu/Gal mitotoxicity assay), read-out: IC50, glu.

Take `CCc1nc2ncc(C)cn2c1C(=O)NCc1ccc(C2CCN(c3nc4n(n3)CCN(S(=O)(=O)C(F)(F)F)C4)CC2)cc1` [Compound 59]: the Score result was “[x]3” and the “Δ IC50, glu/IC50, gal” value was >11.38. Further, the negative-log IC50 (pIC50) (in general, −log10 of the IC50, conventionally taken in molar units) (read-out: IC50, gal) was 4.76. For the same compound, the pIC50 (read-out: IC50, glu) is < 3.70.
Take `CCc1nc2ncc(C)cn2c1C(=O)NCc1ccc(N2CCC(c3nc4n(n3)CCN(S(=O)(=O)C(F)(F)F)C4)CC2)cc1` [Compound 60]: the “Δ IC50, glu/IC50, gal” value is listed as >3.56. The pIC50 (read-out: IC50, gal) was 4.25. Besides, the negative logarithm of the IC50 (pIC50) (read-out: IC50, glu) was < 3.70.
Take `CCc1nc2ncc(C)cn2c1C(=O)NCc1ccc(-c2nc3n(n2)CCN(CCC#N)C3)cc1` [Compound 61]: the negative-log IC50 (pIC50) was < 3.70 under setting [1] and < 3.70 under setting [2].
As to `CCc1nc2ccc(C)cn2c1C(=O)NCc1ccc(-c2nc3n(n2)CCN(CCC#N)C3)cc1` [Compound 62], the negative logarithm of the IC50 (pIC50) runs as follows: under setting [1], < 3.70; under setting [2], < 3.70.
`CCc1nc2ncc(C)cn2c1C(=O)NCc1ncc(-c2nc3n(n2)CCN(S(=O)(=O)C(F)(F)F)C3)s1` [Compound 64]: the negative-log IC50 (pIC50) is, setting by setting: under setting [1], < 3.70; under setting [2], < 3.70.
As for `CCc1nc2n(c1C(=O)NCc1ccc(-c3nc4n(n3)CCN(S(=O)(=O)C(F)(F)F)C4)cc1)CCN(C)C2` [Compound 65], the negative-log IC50 (pIC50) by setting is: under setting [1], < 3.70; under setting [2], < 3.70.
On to `CCc1nc2ncc(C)cn2c1C(=O)NCc1cccc(-c2nc3n(n2)CCN(S(=O)(=O)C(F)(F)F)C3)c1` [Compound 67], for which the Score entry was “[x]1” and the “Δ IC50, glu/IC50, gal” value was >1.34. For the same compound, the pIC50 (read-out: IC50, gal) is 3.83. The pIC50 (read-out: IC50, glu) is < 3.70.
Turning to `CCc1nc2ncc(C)cn2c1C(=O)NCc1ccc(C2CCN(c3nc4n(n3)CCN(S(=O)(=O)C(F)(F)F)C4)C2)cc1` (stereo not shown) [Compound 69], the Score entry was “[x]3” and the “Δ IC50, glu/IC50, gal” value was found to be 11.37. Also, the negative-log IC50 (pIC50) (read-out: IC50, gal) was 4.81. For the same compound, the pIC50 (read-out: IC50, glu) was 3.76.
As for `CCc1nc2ncc(C)cn2c1C(=O)NCc1ccc(N2CCN(c3nc4n(n3)CCN(S(=O)(=O)C(F)(F)F)C4)CC2)cc1` [Compound 70], the negative-log IC50 (pIC50) reads like this: (read-out: IC50, gal) < 4.30; (read-out: IC50, glu) < 4.30.
Consider `CCc1nc2ncc(C)cn2c1C(=O)NCc1csc(-c2nc3n(n2)CCN(S(=O)(=O)C(F)(F)F)C3)n1` [Compound 73], for which the negative logarithm of the IC50 (pIC50) is < 3.70 (read-out: IC50, gal) and < 3.70 (read-out: IC50, glu).
Consider `CCc1nc2ncc(C)cn2c1C(=O)NCc1nc(-c2nc3n(n2)CCN(S(=O)(=O)C(F)(F)F)C3)cs1` [Compound 75], for which the pIC50 is, setting by setting: (read-out: IC50, gal) < 3.70; (read-out: IC50, glu) < 3.70.
Turning to `CCc1nc2ncc(C)cn2c1C(=O)NCc1nnc(-c2nc3n(n2)CCN(S(=O)(=O)C(F)(F)F)C3)s1` [Compound 76], the pIC50 by setting is: (read-out: IC50, gal) < 3.70; (read-out: IC50, glu) < 3.70.
For `CCc1nc2ncc(Cl)cn2c1C(=O)NCc1cnc(-c2nc3n(n2)CCN(S(=O)(=O)C(F)(F)F)C3)c(F)c1` [Compound 77], the negative-log IC50 (pIC50) was < 3.70 (read-out: IC50, gal) and < 3.70 (read-out: IC50, glu).
Consider `CCc1nc2cc(N)c(Cl)cn2c1C(=O)NCc1cnc(-c2nc3n(n2)CCN(S(=O)(=O)C(F)(F)F)C3)c(F)c1` [Compound 78], for which the pIC50 by setting is: (read-out: IC50, gal) < 3.70; (read-out: IC50, glu) < 3.70.
Take `CCc1nc2ncc(C)cn2c1C(=O)NC(C)(C)c1ccc(-c2nc3n(n2)CCN(S(=O)(=O)C(F)(F)F)C3)cc1` [Compound 83]: the Score entry was “[x]1” and the “Δ IC50, glu/IC50, gal” value amounted to 1.12. Moreover, the pIC50 (read-out: IC50, gal) was 3.90. Also, the pIC50 (read-out: IC50, glu) was 3.85.
Turning to `CCc1nc2ncc(C)cn2c1C(=O)NCc1ccc(-c2cn3c(n2)CN(S(=O)(=O)C(F)(F)F)CC3)cc1` [Compound 89], the negative logarithm of the IC50 (pIC50) by setting is: under setting [1], < 3.70; under setting [2], < 3.70.
Turning to `CCc1nc2ncc(Cl)cn2c1C(=O)NCc1ccc(-c2cn3c(n2)CN(S(=O)(=O)C(F)(F)F)CC3)cc1` [Compound 90], the pIC50 is, setting by setting: under setting [1], < 3.70; under setting [2], < 3.70.
As to `CCc1nc2ncc(Cl)cn2c1C(=O)NCc1ccc(-c2cc3n(n2)CCN(S(=O)(=O)C(F)(F)F)C3)cc1` [Compound 91], the Score result was “[x]3” and the “Δ IC50, glu/IC50, gal” value is listed as >12.85. In addition, for the setting “read-out: IC50, gal”, the pIC50 is 4.81. In addition, the pIC50 (read-out: IC50, glu) is < 3.70.
As to `Cc1cnc2nc(C3CC3)c(C(=O)NCc3ccc(-c4cc5n(n4)CCN(S(=O)(=O)C(F)(F)F)C5)cc3)n2c1` [Compound 93], the negative logarithm of the IC50 (pIC50) reads like this: under setting [1], < 3.70; under setting [2], < 3.70.
As to `CCc1nc2ncc(C)cn2c1C(=O)NCc1cccc(Cc2cc3n(n2)CCN(S(=O)(=O)C(F)(F)F)C3)c1` [Compound 95], the Score entry is “[x]1” and the “Δ IC50, glu/IC50, gal” value was >1.7. In addition, for the setting “read-out: IC50, gal”, the pIC50 is 3.93. Besides, where the note is “read-out: IC50, glu”, the negative-log IC50 (pIC50) is < 3.70.
Take `CC(=O)N1CCn2nc(-c3ccc(CNC(=O)c4c(C5CC5)nc5ncc(C)cn45)cc3)cc2C1` [Compound 96]: the pIC50 by setting is: under setting [1], < 3.70; under setting [2], < 3.70.
Turning to `Cc1cnc2nc(C3CC3)c(C(=O)NCc3ccc(-c4nc5n(n4)CCN(S(=O)(=O)C(F)(F)F)C5)c(F)c3)n2c1` [Compound 97], the negative-log IC50 (pIC50) runs as follows: under setting [1], < 4.60; under setting [2], < 4.60.
As to `Cc1cnc2nc(C3CC3)c(C(=O)NCc3ccc(-c4cc5n(n4)CCN(S(C)(=O)=O)C5)cc3)n2c1` [Compound 99], the pIC50 was < 3.70 under setting [1] and < 3.70 under setting [2].
`Cc1cnc2nc(C3CC3)c(C(=O)NCc3ccc(-c4cc5n(n4)CCN(C)C5)cc3)n2c1` [Compound 100]: the pIC50 was < 3.70 under setting [1] and < 3.70 under setting [2].
Turning to `COCCN1CCn2nc(-c3ccc(CNC(=O)c4c(C5CC5)nc5ncc(C)cn45)cc3)cc2C1` [Compound 101], the negative logarithm of the IC50 (pIC50) reads like this: under setting [1], < 3.70; under setting [2], < 3.70.
For the compound `Cc1cnc2nc(C3CC3)c(C(=O)NCc3ccc(-c4nn5c(c4C)CN(S(=O)(=O)C(F)(F)F)CC5)cc3)n2c1` [Compound 102], the Score entry is “[x]3” and the “Δ IC50, glu/IC50, gal” value is on record as >6.69. Also, for the setting “read-out: IC50, gal”, the pIC50 is 4.52. In addition, for the setting “read-out: IC50, glu”, the negative-log IC50 (pIC50) was < 3.70.
On to `O=C(NCc1ccc(-c2nc3n(n2)CCN(S(=O)(=O)C(F)(F)F)C3)cc1)c1c(C2CC2)nc2ncc(Cl)cn12` [Compound 103], for which the Score result is “[x]0” and the “Δ IC50, glu/IC50, gal” value is reported as >1.3. Moreover, the pIC50 (read-out: IC50, gal) was 4.41. Besides, the pIC50 (read-out: IC50, glu) is < 4.30.
The corresponding values for `Cc1cnc2nc(C3CC3)c(C(=O)NCc3ccc(-c4cc5n(n4)CCN(CC(F)(F)F)C5)cc3)n2c1` [Compound 107] are “[x]0”, >1.13, 4.35 and < 4.30.
For `Cc1cnc2nc(C3CC3)c(C(=O)NCc3ccc(-c4cc5n(n4)CCN(S(=O)(=O)CC(C)C)C5)cc3)n2c1` [Compound 108], the Score entry is “[x]0” and the “Δ IC50, glu/IC50, gal” value was >1.29. Moreover, the negative logarithm of the IC50 (pIC50) (read-out: IC50, gal) is 4.41. Moreover, the pIC50 (read-out: IC50, glu) is < 4.30.
For the compound `COCCS(=O)(=O)N1CCn2nc(-c3ccc(CNC(=O)c4c(C5CC5)nc5ncc(C)cn45)cc3)cc2C1` [Compound 109], the pIC50 was < 4.30 under setting [1] and < 4.30 under setting [2].
On to `CCc1nc2ncc(C)cn2c1C(=O)NCc1ccc(-c2nc3n(n2)CCN(S(=O)(=O)C(F)(F)F)C3)cc1` [Compound 110], for which the pIC50 by setting is: under setting [1], < 4.00; under setting [2], < 4.00.
For the compound `O=C(NCc1ccc(-c2cn3c(n2)CN(S(=O)(=O)C(F)(F)F)CC3)cc1)c1c(C(F)(F)F)nc2ccccn12` [Compound 115], the “Δ IC50, glu/IC50, gal” value is >3.08. The negative logarithm of the IC50 (pIC50) (read-out: IC50, gal) was 4.19. The pIC50 (read-out: IC50, glu) is < 3.70.
Take `O=C(NCc1ccc(-c2cn3c(n2)CN(S(=O)(=O)C(F)(F)F)CC3)cc1)c1c(C(F)F)nc2ccccn12` [Compound 116]: the Score entry is “[x]3” and the “Δ IC50, glu/IC50, gal” value is >9.96. Also, the pIC50 (read-out: IC50, gal) is 4.70. The negative logarithm of the IC50 (pIC50) (read-out: IC50, glu) is < 3.70.
On to `CCc1nc2ccc(Cl)cn2c1C(=O)NCc1ccc(-c2cn3c(n2)CN(S(=O)(=O)C(F)(F)F)CC3)cc1` [Compound 117], for which the negative-log IC50 (pIC50) reads like this: under setting [1], < 4.30; under setting [2], < 4.30.
Regarding `CCc1nc2ccc(Cl)cn2c1C(=O)NCc1ccc(-c2cc3n(n2)CCN(S(=O)(=O)C(F)(F)F)C3)cc1` [Compound 118], the Score entry was “[x]1” and the “Δ IC50, glu/IC50, gal” value is recorded as >1.57. For the setting “read-out: IC50, gal”, the negative logarithm of the IC50 (pIC50) is 3.90. Also, the negative-log IC50 (pIC50) (read-out: IC50, glu) was < 3.70.
The corresponding values for `O=C(NCc1ccc(-c2cc3n(n2)CCN(S(=O)(=O)C(F)(F)F)C3)cc1)c1c(C(F)(F)F)nc2ccccn12` [Compound 119] are “[x]1”, >1.54, 3.89 and < 3.70.
On to `O=C(NCc1ccc(-c2cc3n(n2)CCN(S(=O)(=O)C(F)(F)F)C3)cc1)c1c(C(F)F)nc2ccccn12` [Compound 120], for which the Score entry is “[x]3” and the “Δ IC50, glu/IC50, gal” value is >8.01. The negative logarithm of the IC50 (pIC50) (read-out: IC50, gal) was 4.60. For the setting “read-out: IC50, glu”, the negative-log IC50 (pIC50) is < 3.70.
As to `Cc1c(-c2ccc(CNC(=O)c3c(C(F)(F)F)nc4ccccn34)cc2)nn2c1CN(S(=O)(=O)C(F)(F)F)CC2` [Compound 121], the “Δ IC50, glu/IC50, gal” value is reported as >4.31. For the same compound, the pIC50 (read-out: IC50, gal) is 4.33. Besides, the negative-log IC50 (pIC50) (read-out: IC50, glu) is < 3.70.
In the case of `O=C(NCc1ccc(-c2nc3n(n2)CCN(S(=O)(=O)C(F)(F)F)C3)cc1)c1c(C(F)(F)F)nc2ccccn12` [Compound 122], the pIC50 by setting is: under setting [1], < 4.00; under setting [2], < 4.00.
